Results as given in ChEMBL document CHEMBL4002616, “Functionalized triazines as potent HCV entry inhibitors” (Bioorg Med Chem Lett, 2017).

Assays:
Liver = assay: (§1) Metabolic stability in rat liver microsomes assessed as parent compound remaining after 10 mins; assay type: ADME, microsome; settings: microsomes, 10 min
[1] = Metabolic stability in human liver microsomes assessed as parent compound remaining after 10 mins; assay type: ADME, microsome; settings: read-out: Stability
[2] = as §1; assay type: ADME, microsome; settings: liver microsomes, read-out: Stability
[3] = Plasma half life in rat at 2 mg/kg, iv; assay type: ADME, organism-based
[4] = Volume of distribution at steady state in rat at 2 mg/kg, iv or 5 mg/kg, po; assay type: ADME, organism-based; settings: in vivo, read-out: Vdss
[5] = Clearance in rat at 2 mg/kg, iv; assay type: ADME, organism-based; settings: in vivo
Rattus norvegicus = assay: AUC in rat at 5 mg/kg, po; assay type: ADME, organism-based; settings: in vivo, BLD = below limit of detection

SMILES	remaining at 10 min [1] [%]	remaining at 10 min [2] [%]	also measured
O=C(NS(=O)(=O)CCNC(=O)C1CC1)c1ccc(Nc2nc(NC3(c4ccc(Cl)cc4)CC3)nc(OCC(F)(F)F)n2)cc1	90	–	Stability (Liver): Not Active
CN(C)CCS(=O)(=O)NC(=O)c1ccc(Nc2nc(NC3(c4ccc(Cl)cc4)CC3)nc(OCC(F)(F)F)n2)cc1	89	100	–
CC(C)C(=O)NCCS(=O)(=O)NC(=O)c1ccc(Nc2nc(NC3(c4ccc(Cl)cc4)CC3)nc(OCC(F)(F)F)n2)cc1	86	84	–
O=C(NS(=O)(=O)CCNCc1ccccc1)c1ccc(Nc2nc(NC3(c4ccc(Cl)cc4)CC3)nc(OCC(F)(F)F)n2)cc1	99	100	–
CNC(=O)NCCS(=O)(=O)NC(=O)c1ccc(Nc2nc(NC3(c4ccc(Cl)cc4)CC3)nc(OCC(F)(F)F)n2)cc1	97	100	–
Cc1ccccc1S(=O)(=O)NC(=O)c1ccc(Nc2nc(NC3(c4ccc(Cl)cc4)CC3)nc(OCC(F)(F)F)n2)cc1	100	100	–
CC(C)(C)CNCCS(=O)(=O)NC(=O)c1ccc(Nc2nc(NC3(c4ccc(Cl)cc4)CC3)nc(OCC(F)(F)F)n2)cc1	89	90	half-life [3]: 2.6 h; Vd [4]: 0.6 L/kg; clearance [5]: 22.5 mL/min/kg; AUC (Rattus norvegicus): Bld
O=C(NS(=O)(=O)CCN1CCCC1)c1ccc(Nc2nc(NC3(c4ccc(Cl)cc4)CC3)nc(OCC(F)(F)F)n2)cc1	96	98	–
CC(C)NC(=O)NCCS(=O)(=O)NC(=O)c1ccc(Nc2nc(NC3(c4ccc(Cl)cc4)CC3)nc(OCC(F)(F)F)n2)cc1	100	97	–
CC(C)S(=O)(=O)NC(=O)c1ccc(Nc2nc(NC3(c4ccc(Cl)cc4)CC3)nc(OCC(F)(F)F)n2)cc1	100	96	–
COC(=O)NCCS(=O)(=O)NC(=O)c1ccc(Nc2nc(NC3(c4ccc(Cl)cc4)CC3)nc(OCC(F)(F)F)n2)cc1	90	100	–
O=C(NS(=O)(=O)C1CC1)c1ccc(Nc2nc(NC3(c4ccc(Cl)cc4)CC3)nc(OCC(F)(F)F)n2)cc1	100	85	–
CC(=O)NCCS(=O)(=O)NC(=O)c1ccc(Nc2nc(NC3(c4ccc(Cl)cc4)CC3)nc(OCC(F)(F)F)n2)cc1	95	100	–
CC(C)OC(=O)NCCS(=O)(=O)NC(=O)c1ccc(Nc2nc(NC3(c4ccc(Cl)cc4)CC3)nc(OCC(F)(F)F)n2)cc1	100	73	–
CCCCCNc1nc(Nc2ccc([N+](=O)[O-])cc2)nc(OCC(F)(F)F)n1	74	35	–
O=C(NS(=O)(=O)CCN1CCOCC1)c1ccc(Nc2nc(NC3(c4ccc(Cl)cc4)CC3)nc(OCC(F)(F)F)n2)cc1	78	97	–
CC(C)(C)OC(=O)NCCS(=O)(=O)NC(=O)c1ccc(Nc2nc(NC3(c4ccc(Cl)cc4)CC3)nc(OCC(F)(F)F)n2)cc1	92	93	–
O=C(O)c1ccc(Nc2nc(NC3(c4ccc(Cl)cc4)CC3)nc(OCC(F)(F)F)n2)cc1	89	99	–
CCN(CC)CCS(=O)(=O)NC(=O)c1ccc(Nc2nc(NC3(c4ccc(Cl)cc4)CC3)nc(OCC(F)(F)F)n2)cc1	99	98	–
CC(C)NCCS(=O)(=O)NC(=O)c1ccc(Nc2nc(NC3(c4ccc(Cl)cc4)CC3)nc(OCC(F)(F)F)n2)cc1	89	100	–
CN(C)S(=O)(=O)NC(=O)c1ccc(Nc2nc(NC3(c4ccc(Cl)cc4)CC3)nc(OCC(F)(F)F)n2)cc1	86	76	–
CCS(=O)(=O)NC(=O)c1ccc(Nc2nc(NC3(c4ccc(Cl)cc4)CC3)nc(OCC(F)(F)F)n2)cc1	100	85	–
NCCS(=O)(=O)NC(=O)c1ccc(Nc2nc(NC3(c4ccc(Cl)cc4)CC3)nc(OCC(F)(F)F)n2)cc1	100	100	–
CS(=O)(=O)NC(=O)c1ccc(Nc2nc(NC3(c4ccc(Cl)cc4)CC3)nc(OCC(F)(F)F)n2)cc1	100	85	–
O=C(NS(=O)(=O)c1ccc(F)cc1)c1ccc(Nc2nc(NC3(c4ccc(Cl)cc4)CC3)nc(OCC(F)(F)F)n2)cc1	100	99	–
O=C(NS(=O)(=O)c1ccccc1)c1ccc(Nc2nc(NC3(c4ccc(Cl)cc4)CC3)nc(OCC(F)(F)F)n2)cc1	100	100	–
CC(C)(C)NC(=O)NCCS(=O)(=O)NC(=O)c1ccc(Nc2nc(NC3(c4ccc(Cl)cc4)CC3)nc(OCC(F)(F)F)n2)cc1	96	93	–
